{"source": "patent US20100160391A1", "about": "“Substituted Aminopyridines as Fluorescent Reporters for Amide Hydrolases” (priority 2006, published 2010)", "key": {"[1]": {"test_system": "amidases, microsomes from High Five cells", "test": "Specific activity, microsomes from High Five cells", "settings": "pH 8.0, 37° C.; NM = not measurable at the same protein concentration as other substrates", "method": "Preparation of recombinant human FAAH. Transgenic expression of the human FAAH in a baculovirus system was performed by following the method described in Nishi et al., Arch. […] The cDNA encoding human FAAH (GenBank Accession No. NM—001441) was amplified by PCR using a human liver cDNA library (Invitrogen; Carlsbad, Calif.) as a template. The primer pair was 5′-[sequence]-3′ and 5′-[sequence]-3′. BglII and EcoRI endonuclease sites (underlined) were incorporated just upstream of the start codon and downstream of the stop codon of the coding sequence of FAAH, respectively. The PCR products were cloned into a pCR2.1 vector (Invitrogen) and the nucleotide sequence was verified by DNA sequencing. The cDNA fragments were then excised and directionally ligated to the BglII and EcoRI sites of the baculovirus transfer vector pAcUW21 (Lopez-Ferber et al., Baculovirus transfer vectors, in “Baculovirus Expression Protocols,” Richardson (Ed.), pp 25-63, Humana Press, Totowa, N.J., 1995). Recombinant baculoviruses harboring the human FAAH gene, Ac-hFAAH, were generated by co-transfection of Spodoptera frugiperda-derived Sf21 cells with the recombinant transfer vector plasmid and Bsu36I-cleaved BacPAK6 viral DNA (Clontech Laboratories; Mountain View, Calif.) as described in O'Reilly et al., Baculovirus Expression Vectors: A Laboratory Manual, Oxford University Press, New York, 1992. Trichoplusia ni-derived High Five cells (1×10^6 cells/ml) were inoculated with a high titer of Ac-hFAAH. At 72 hours post-infection, the infected cells were harvested by centrifugation at 2,000×g for 20 min at 4° C. and suspended in 50 mM Tris-HCl (pH 8.0) containing 150 mM NaCl, 1 mM EDTA, 1 μM pepstatin, 100 μM leupeptin, and 0.1 mg/ml aprotinin. The cell suspension was then homogenized using a Polytron homogenizer and centrifuged at 10,000×g for 20 min at 4° C. […]\nComparison of the lowest detection limits of protein concentration of FAAH toward colorimetric and fluorescent substrates. […] The lowest detection limits of microsomal fatty acid amide hydrolase (FAAH) by substrates were determined by the fact that the signal at 10 min after kinetic measurements are equal to or over three times the noise or basal line at 0 min. Colorimetric substrate (16) assays were performed in clear 96-well microtititer plates using an absorbance wavelength at 382 nm. The fluorescent substrates containing 5-amino-2-methoxypyridine (e.g., 10, 13) were measured at an excitation wavelength (302 nm), emission wavelength (396 nm), and auto cutoff wavelength (325 nm). Similarly, the fluorescent substrates containing 5-amino-2-methoxy-6-methylpyridine (e.g., 11, 14, and 17) were measured at an excitation wavelength (304 nm), emission wavelength (392 nm), and an auto cutoff wavelength of 325 nm. […]"}, "[2]": {"molecular_target": "T1, microsomal fatty acid amide hydrolase (FAAH) (Homo sapiens, UniProt O00519)", "T1 construct": "made in house; host or cells: Trichoplusia ni High Five cells infected with recombinant baculovirus Ac-hFAAH; microsomal fraction", "T1 sequence (O00519 1-579)": "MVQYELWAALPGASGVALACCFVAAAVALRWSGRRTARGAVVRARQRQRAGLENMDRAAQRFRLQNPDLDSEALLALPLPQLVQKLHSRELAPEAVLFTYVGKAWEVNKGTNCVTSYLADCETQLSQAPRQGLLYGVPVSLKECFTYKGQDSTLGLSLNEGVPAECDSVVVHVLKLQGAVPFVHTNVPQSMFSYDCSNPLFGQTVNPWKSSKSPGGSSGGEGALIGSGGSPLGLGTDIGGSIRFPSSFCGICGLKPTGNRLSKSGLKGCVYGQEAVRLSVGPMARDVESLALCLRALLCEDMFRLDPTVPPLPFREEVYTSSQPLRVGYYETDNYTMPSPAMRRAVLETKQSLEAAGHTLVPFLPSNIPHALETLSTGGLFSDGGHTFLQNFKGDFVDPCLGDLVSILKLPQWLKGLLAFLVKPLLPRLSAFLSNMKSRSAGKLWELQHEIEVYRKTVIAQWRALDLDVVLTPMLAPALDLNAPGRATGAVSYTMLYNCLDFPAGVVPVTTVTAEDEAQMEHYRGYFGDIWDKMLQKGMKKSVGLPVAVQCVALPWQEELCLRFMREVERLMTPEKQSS", "test": "Lowest detection limits of microsomal FAAH toward colorimetric and fluorescent substrates", "type": "biochemical", "experimental": "Preparation of recombinant human FAAH. Transgenic expression of the human FAAH in a baculovirus system was performed by following the method described in Nishi et al., Arch. Biochem. Biophys., 445:115-123 (2006). The cDNA encoding human FAAH (GenBank Accession No. NM_001441) was amplified by PCR using a human liver cDNA library (Invitrogen; Carlsbad, Calif.) as a template. The primer pair was 5′-[…]-3′ and 5′-[…]-3′. BglII and EcoRI endonuclease sites (underlined) were incorporated just upstream of the start codon and downstream of the stop codon of the coding sequence of FAAH, respectively. The PCR products were cloned into a pCR2.1 vector (Invitrogen) and the nucleotide sequence was verified by DNA sequencing. The cDNA fragments were then excised and directionally ligated to the BglII and EcoRI sites of the baculovirus transfer vector pAcUW21 (Lopez-Ferber et al., Baculovirus transfer vectors, in “Baculovirus Expression Protocols,” Richardson (Ed.), pp 25-63, Humana Press, Totowa, N.J., 1995). Recombinant baculoviruses harboring the human FAAH gene, Ac-hFAAH, were generated by co-transfection of Spodoptera frugiperda-derived Sf21 cells with the recombinant transfer vector plasmid and Bsu36I-cleaved BacPAK6 viral DNA (Clontech Laboratories; Mountain View, Calif.) as described in O'Reilly et al., Baculovirus Expression Vectors: A Laboratory Manual, Oxford University Press, New York, 1992. Trichoplusia ni-derived High Five cells (1×10^6 cells/ml) were inoculated with a high titer of Ac-hFAAH. At 72 hours post-infection, the infected cells were harvested by centrifugation at 2,000×g for 20 min at 4° C. and suspended in 50 mM Tris-HCl (pH 8.0) containing 150 mM NaCl, 1 mM EDTA, 1 μM pepstatin, 100 μM leupeptin, and 0.1 mg/ml aprotinin. The cell suspension was then homogenized using a Polytron homogenizer and centrifuged at 10,000×g for 20 min at 4° C. The microsomal fraction was collected by ultracentrifugation of the supernatant at 100,000×g for 60 min at 4° C. The pellet was resuspended in 20 mM Tris-HCl (pH 8.0) containing 10% (w/v) glycerol and 1% (w/v) Triton-X 100 and stored at −80° C. until use.\nComparison of the lowest detection limits of protein concentration of FAAH toward colorimetric and fluorescent substrates. In general, all assays were performed in 96-well styrene flat-bottom microtiter plates with a Spectra Max M2 spectrophotometer at 37° C. for […]. The total volume of each well was 201 μl consisting of 0.1 M sodium phosphate buffer (pH 8.0) (190 μl) containing 1% glycerol and 0.1% Triton-X 100, stock or diluted protein solution (10 μl), and the substrate solution (1 μl) in ethanol (final concentration 200 μM for 10, 11, 13 or 14) or in DMSO (final concentration 25 μM for 12, 15, or 16; 50 μM for 17). The lowest detection limits of microsomal fatty acid amide hydrolase (FAAH) by substrates were determined by the fact that the signal at 10 min after kinetic measurements are equal to or over three times the noise or basal line at 0 min. Colorimetric substrate (16) assays were performed in clear 96-well microtititer plates using an absorbance wavelength at 382 nm. The fluorescent substrates containing 5-amino-2-methoxypyridine (e.g., 10, 13) were measured at an excitation wavelength (302 nm), emission wavelength (396 nm), and auto cutoff wavelength (325 nm). Similarly, the fluorescent substrates containing 5-amino-2-methoxy-6-methylpyridine (e.g., 11, 14, and 17) were measured at an excitation wavelength (304 nm), emission wavelength (392 nm), and an auto cutoff wavelength of 325 nm. In addition, an excitation wavelength (366 nm), emission wavelength (496 nm), and auto cutoff wavelength (495 nm) were used for the substrates (e.g., 12 and 15) containing 7-amino-4-trifluoromethyl coumarin."}, "[3]": {"test": "Dependence of relative fluorescent intensity on pH values", "type": "physicochemical", "settings": "25 μM, pH 8, excitation 302 nm", "experimental": "The dependence of relative fluorescent intensity on pH values. 5-amino-2-methoxypyridine (6) was used to determine whether protonization/de-protonization affects the relative fluorescent intensities of the reporters. A stock solution of (6) in ethanol (5 μl, 5 mM) was added to 995 μl 0.1 M sodium phosphate buffer (from pH 6.0 to pH 8.0) or 0.1 M Tris/HCl buffer (pH 9.0) in a quartz cuvette (final substrate concentration 25 μM). Relative fluorescent unit/intensity (RFU) for emission spectra was recorded by a 2 nm interval at room temperature using a fixed excitation wavelength (λ=302 nm). The RFU of each pH value was an average of triplicates and the standard deviation for each point was less than 1%. Similarly, the RFU of the excitation spectrum was recorded by a 2 nm interval at room temperature using a fixed emission wavelength (λ=396 nm) in 0.1 M phosphate buffer (pH 8.0)."}}, "note": "Marks after values point to notes of the source that are not given here.", "data": [{"compound": "CCCCCCCC(=O)Nc1ccc(OC)nc1", "note": "[Compound 13, N-(6-methoxypyridin-3-yl) octanamide]", "values": [{"measurement": "Specific activity, Microsomes from High Five cells", "setting": "[1]", "result": "793 ± 38.9", "unit": "pmol/min/mg protein"}, {"measurement": "base line, Average", "setting": "[2]; 0 min, protein 0.11 (13), 0.67 (14), 100 (15), 0.5 (17) μg/well, 200 μM (13),(14), 25 μM (15), 50 μM (17)", "result": 302, "unit": "RFU"}, {"measurement": "signal, Average", "setting": "[2]; 10 min, protein 0.11 (13), 0.67 (14), 100 (15), 0.5 (17) μg/well, 200 μM (13),(14), 25 μM (15), 50 μM (17)", "result": "1091* RFU"}, {"measurement": "difference between (13) and (17) in limit of protein detection", "setting": "[2]; Table 2", "result": 5, "unit": "times"}, {"measurement": "Protein, lowest detection limit of microsomal FAAH (signal at 10 min ≥ three times base line)", "setting": "[2]; pH 8.0, 37° C., 200 μM (13), (14), 50 μM (17)", "result": 0.11, "unit": "μg/200 μ′"}, {"measurement": "lowest detection limit of protein", "setting": "[2]; signal at 10 min equal to three times base line", "result": 0.55, "unit": "μg protein/ml"}, {"measurement": "relative fluorescent intensity of substrate emission at the maximal excitation wavelength of (6)", "setting": "[3]", "result": "less than 200 RFU"}, {"measurement": "melting point", "result": "61.2 to 61.7", "unit": "°C"}]}]}
